34 molecules from ChEMBL document CHEMBL1155072, “Urotensin-II receptor antagonists: synthesis and SAR of N-cyclic azaalkyl benzamides” (Bioorg Med Chem Lett, 2008) can be followed below.

Assay [1] addresses T1, Urotensin-2 receptor (Homo sapiens, UniProt Q9UKP6).
T1 sequence (Q9UKP6 whole entry): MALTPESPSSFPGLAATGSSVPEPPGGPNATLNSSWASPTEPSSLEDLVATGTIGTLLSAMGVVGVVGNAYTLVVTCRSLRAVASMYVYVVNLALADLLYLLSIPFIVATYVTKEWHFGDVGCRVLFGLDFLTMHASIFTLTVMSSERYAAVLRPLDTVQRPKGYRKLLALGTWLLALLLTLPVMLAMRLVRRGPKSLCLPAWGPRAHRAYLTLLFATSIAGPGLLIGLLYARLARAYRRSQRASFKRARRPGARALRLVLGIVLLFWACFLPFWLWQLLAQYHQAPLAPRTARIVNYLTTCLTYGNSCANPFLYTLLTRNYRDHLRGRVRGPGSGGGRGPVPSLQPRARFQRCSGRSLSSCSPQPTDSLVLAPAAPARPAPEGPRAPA
The experiment in a line: Displacement of [I125]hU2 from human recombinant urotensin 2 receptor expressed in HEK293 cells. The format is cell-based.

Assay [2] has as its target T1, Urotensin-2 receptor. The experiment in a line: Antagonist activity at human recombinant urotensin 2 receptor expressed in HEK293 cells assessed as inhibition of urotensin 2-induced calcium mobilization by FLIPR assay. Format: functional, cell-based.
A further assay addresses Cytochrome P450 2D6 (Homo sapiens, UniProt P10635). In words: Inhibition of CYP2D6. Format: ADME.
For assay [3], the target named is T2, 5-hydroxytryptamine receptor 1A (Homo sapiens, UniProt P08908).
T2 sequence (P08908 whole entry): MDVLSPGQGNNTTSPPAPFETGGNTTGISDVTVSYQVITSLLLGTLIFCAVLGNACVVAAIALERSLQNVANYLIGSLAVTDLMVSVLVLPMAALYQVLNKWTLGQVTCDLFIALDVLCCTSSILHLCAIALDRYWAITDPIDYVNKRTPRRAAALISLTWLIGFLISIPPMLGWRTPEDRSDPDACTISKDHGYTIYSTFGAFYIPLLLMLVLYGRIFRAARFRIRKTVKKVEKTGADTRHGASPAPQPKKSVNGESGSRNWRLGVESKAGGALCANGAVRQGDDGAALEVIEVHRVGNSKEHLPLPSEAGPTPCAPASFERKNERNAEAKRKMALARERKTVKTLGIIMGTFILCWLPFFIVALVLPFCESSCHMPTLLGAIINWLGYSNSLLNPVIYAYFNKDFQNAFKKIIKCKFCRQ
In words: Binding affinity to 5HT1A receptor.

The target in assay [4] is 5-hydroxytryptamine receptor 1D (Homo sapiens, UniProt P28221). The experiment in a line: Binding affinity to 5HT1D receptor.
For assay [5], the target named is 5-hydroxytryptamine receptor 2B (Homo sapiens, UniProt P41595). The experiment in a line: Binding affinity at 5HT2B receptor.
The target in assay [6] is T3, 5-hydroxytryptamine receptor 2C (Homo sapiens, UniProt P28335).
T3 sequence (P28335 whole entry): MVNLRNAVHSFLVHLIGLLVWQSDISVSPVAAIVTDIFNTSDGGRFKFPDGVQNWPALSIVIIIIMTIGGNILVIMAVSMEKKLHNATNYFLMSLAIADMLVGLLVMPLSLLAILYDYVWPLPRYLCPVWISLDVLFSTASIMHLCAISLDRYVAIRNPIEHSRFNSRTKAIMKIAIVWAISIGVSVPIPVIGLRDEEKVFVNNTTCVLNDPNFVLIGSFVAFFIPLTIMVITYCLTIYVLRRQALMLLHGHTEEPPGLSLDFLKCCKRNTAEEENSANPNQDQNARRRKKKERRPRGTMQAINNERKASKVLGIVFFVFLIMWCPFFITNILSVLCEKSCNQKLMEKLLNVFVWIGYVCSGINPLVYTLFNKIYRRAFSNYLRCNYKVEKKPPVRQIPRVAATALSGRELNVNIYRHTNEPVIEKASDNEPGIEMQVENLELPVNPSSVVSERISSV
The experiment in a line: Binding affinity at 5HT2C receptor.

Another assay has as its target D(2) dopamine receptor (Homo sapiens, UniProt P14416). In words: Binding affinity to dopamine D2 receptor.
Assay [7] concerns the target 5-hydroxytryptamine receptor 1E (Homo sapiens, UniProt P28566). In words: Binding affinity to 5HT1E receptor.
Assay [8] concerns the target T4, 5-hydroxytryptamine receptor 1F (Homo sapiens, UniProt P30939).
T4 sequence (P30939 whole entry): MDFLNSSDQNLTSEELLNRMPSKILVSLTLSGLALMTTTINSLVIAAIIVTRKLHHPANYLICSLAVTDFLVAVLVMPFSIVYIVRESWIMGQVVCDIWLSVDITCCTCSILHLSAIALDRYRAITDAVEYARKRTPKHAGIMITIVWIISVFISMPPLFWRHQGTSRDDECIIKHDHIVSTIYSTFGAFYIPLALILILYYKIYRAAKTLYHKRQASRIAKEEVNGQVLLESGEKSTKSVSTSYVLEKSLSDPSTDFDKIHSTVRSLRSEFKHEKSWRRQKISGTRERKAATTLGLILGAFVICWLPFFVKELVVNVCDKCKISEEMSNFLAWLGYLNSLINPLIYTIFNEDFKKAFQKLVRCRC
The experiment in a line: Binding affinity to 5HT1F receptor.

Assay [9] has as its target 5-hydroxytryptamine receptor 6 (Homo sapiens, UniProt P50406). The experiment in a line: Binding affinity to 5HT6 receptor.
For assay [10], the target named is Beta-2 adrenergic receptor (Homo sapiens, UniProt P07550). The experiment in a line: Binding affinity to beta 2 adrenergic receptor.
Assay [11] has as its target Cytochrome P450 3A4 (Homo sapiens) (UniProt P08684). In words: Inhibition of CYP3A4.

Sequence of 5-hydroxytryptamine receptor 6 (P50406 whole entry): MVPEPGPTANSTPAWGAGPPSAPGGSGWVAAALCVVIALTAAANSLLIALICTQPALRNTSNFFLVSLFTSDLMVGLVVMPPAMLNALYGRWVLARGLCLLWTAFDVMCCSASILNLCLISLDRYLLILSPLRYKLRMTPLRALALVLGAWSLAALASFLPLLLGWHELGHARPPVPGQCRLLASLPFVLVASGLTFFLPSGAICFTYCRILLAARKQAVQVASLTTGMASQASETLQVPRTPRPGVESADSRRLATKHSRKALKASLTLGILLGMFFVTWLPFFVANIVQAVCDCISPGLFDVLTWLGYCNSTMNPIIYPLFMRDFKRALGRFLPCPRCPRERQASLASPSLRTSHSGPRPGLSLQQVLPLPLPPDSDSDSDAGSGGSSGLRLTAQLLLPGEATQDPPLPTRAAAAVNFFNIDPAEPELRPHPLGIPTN
Sequence of 5-hydroxytryptamine receptor 2B (P41595 whole entry): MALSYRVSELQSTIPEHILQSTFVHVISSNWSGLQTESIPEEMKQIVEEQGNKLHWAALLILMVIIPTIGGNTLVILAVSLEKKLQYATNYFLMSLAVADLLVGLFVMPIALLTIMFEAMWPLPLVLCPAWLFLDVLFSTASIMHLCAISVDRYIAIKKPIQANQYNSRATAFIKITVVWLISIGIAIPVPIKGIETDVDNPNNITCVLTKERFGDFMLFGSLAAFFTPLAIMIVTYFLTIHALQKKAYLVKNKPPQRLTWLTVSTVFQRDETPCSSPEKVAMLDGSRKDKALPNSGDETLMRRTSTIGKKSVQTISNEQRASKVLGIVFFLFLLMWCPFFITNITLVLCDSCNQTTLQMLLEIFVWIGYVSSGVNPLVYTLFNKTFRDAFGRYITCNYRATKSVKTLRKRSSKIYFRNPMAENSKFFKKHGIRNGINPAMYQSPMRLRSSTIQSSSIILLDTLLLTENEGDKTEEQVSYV
Sequence of D(2) dopamine receptor (P14416 whole entry): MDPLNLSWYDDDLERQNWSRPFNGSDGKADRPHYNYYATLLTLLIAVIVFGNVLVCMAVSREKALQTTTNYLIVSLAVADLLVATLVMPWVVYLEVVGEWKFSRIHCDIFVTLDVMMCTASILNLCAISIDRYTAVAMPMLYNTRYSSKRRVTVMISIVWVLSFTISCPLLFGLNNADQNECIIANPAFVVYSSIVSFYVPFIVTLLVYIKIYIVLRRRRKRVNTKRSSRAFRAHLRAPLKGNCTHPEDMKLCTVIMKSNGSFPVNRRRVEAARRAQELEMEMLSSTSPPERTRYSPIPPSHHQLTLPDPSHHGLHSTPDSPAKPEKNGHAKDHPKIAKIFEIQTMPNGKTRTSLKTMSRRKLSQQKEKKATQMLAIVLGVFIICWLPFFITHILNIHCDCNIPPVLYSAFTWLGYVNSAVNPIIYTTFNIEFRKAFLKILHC
Sequence of 5-hydroxytryptamine receptor 1D (P28221 whole entry): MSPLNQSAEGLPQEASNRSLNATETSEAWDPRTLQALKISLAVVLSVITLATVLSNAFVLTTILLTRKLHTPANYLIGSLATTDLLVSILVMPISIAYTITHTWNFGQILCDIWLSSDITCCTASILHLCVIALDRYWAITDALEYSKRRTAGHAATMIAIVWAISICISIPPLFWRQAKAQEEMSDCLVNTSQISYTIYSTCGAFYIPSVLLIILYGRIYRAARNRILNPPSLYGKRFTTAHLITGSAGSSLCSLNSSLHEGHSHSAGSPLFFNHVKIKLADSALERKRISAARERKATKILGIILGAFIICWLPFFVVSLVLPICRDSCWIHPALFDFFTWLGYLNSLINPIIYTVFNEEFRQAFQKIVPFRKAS
Sequence of Cytochrome P450 2D6 (P10635 whole entry): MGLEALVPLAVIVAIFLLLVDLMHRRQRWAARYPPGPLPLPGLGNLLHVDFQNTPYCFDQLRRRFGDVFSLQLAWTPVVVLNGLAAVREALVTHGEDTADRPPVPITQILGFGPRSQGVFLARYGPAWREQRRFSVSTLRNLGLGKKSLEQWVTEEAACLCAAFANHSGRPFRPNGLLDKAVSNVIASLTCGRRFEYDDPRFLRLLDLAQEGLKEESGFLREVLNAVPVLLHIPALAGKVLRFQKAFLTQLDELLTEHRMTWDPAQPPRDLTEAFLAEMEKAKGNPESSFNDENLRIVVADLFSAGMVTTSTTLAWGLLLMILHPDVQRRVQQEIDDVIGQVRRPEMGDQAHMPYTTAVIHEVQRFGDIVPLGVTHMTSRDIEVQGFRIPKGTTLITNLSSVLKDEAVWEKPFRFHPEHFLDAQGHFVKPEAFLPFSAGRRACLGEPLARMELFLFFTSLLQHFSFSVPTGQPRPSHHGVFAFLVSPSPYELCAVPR
Sequence of 5-hydroxytryptamine receptor 1E (P28566 whole entry): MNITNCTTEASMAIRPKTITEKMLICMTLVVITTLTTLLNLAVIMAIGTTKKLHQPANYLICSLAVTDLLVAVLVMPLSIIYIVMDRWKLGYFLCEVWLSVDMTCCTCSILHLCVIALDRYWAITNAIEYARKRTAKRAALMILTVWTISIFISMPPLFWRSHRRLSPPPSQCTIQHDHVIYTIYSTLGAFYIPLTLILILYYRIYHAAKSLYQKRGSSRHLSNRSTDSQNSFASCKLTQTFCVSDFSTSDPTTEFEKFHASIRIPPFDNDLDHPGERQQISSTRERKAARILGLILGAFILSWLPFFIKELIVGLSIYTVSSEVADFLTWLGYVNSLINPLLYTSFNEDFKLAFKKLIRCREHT
Sequence of Cytochrome P450 3A4 (Homo sapiens) (P08684 whole entry, looked up): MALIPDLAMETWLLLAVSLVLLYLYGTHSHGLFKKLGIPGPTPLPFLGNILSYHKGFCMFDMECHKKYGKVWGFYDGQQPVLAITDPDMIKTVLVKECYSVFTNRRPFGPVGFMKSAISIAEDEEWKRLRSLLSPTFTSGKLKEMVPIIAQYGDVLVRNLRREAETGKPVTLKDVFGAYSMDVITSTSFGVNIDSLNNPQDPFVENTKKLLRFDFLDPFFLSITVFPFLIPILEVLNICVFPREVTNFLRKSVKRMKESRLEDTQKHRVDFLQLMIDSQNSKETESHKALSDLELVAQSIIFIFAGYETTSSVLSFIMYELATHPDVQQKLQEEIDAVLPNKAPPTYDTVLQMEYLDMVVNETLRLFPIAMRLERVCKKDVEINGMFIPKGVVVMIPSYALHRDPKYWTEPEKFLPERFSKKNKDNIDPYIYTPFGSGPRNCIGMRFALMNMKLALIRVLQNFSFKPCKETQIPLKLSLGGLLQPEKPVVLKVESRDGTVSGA
Sequence of Beta-2 adrenergic receptor (P07550 whole entry): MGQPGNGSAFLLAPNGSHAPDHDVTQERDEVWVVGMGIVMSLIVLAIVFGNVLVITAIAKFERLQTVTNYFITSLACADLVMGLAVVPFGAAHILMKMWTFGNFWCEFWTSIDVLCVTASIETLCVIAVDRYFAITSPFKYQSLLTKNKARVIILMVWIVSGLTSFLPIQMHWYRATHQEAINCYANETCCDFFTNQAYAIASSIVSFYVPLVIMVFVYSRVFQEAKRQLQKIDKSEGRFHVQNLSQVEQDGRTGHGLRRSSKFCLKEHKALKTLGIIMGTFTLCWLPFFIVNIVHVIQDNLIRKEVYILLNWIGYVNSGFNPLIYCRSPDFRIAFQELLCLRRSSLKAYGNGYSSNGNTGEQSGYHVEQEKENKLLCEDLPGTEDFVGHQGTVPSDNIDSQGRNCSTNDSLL

In the case of `O=C(N[C@H]1CCN(CCc2ccc(OC3CCNCC3)cc2)C1)c1ccc(Cl)c(Cl)c1`, the inhibition constant Ki at Urotensin-2 receptor [1] amounted to 42 nM.

`CC(C)C[C@H](NC(=O)c1cc2ccccc2s1)C(=O)N[C@H]1CCN(Cc2ccc(OC3CCNCC3)c(Br)c2)C1`: the Ki at Urotensin-2 receptor [1] came out at 3 nM.

As to `CN(C)CCCOc1ccc(CN2CCN(C(=O)c3ccc(Cl)c(Cl)c3)CC2)cc1`, the Ki on Urotensin-2 receptor [1] is more than 10000 nM.

As to `O=C(N[C@H]1CCN(CCc2ccc(OC3CCNCC3)c(Br)c2)C1)c1ccc(Cl)c(Cl)c1`, at Urotensin-2 receptor [1], the Ki came to 10 nM.

For `CC(C)C[C@H](NC(=O)c1cc2ccccc2s1)C(=O)N[C@H]1CCN(CCc2ccc(O[C@@H]3CCNC3)c(Br)c2)C1`, at Urotensin-2 receptor [1], the inhibitory constant (Ki) was determined as 18 nM.

Regarding `Cc1cc(CN2CC[C@H](NC(=O)c3ccc(Cl)c(Cl)c3)C2)ccc1OC1CCN(C)C1` (mixture of isomers), at Urotensin-2 receptor [1], the inhibition constant (Ki) amounted to 108 nM.

`CC(C)C[C@H](NC(=O)c1cc2ccccc2s1)C(=O)N[C@H]1CCN(S(=O)(=O)c2ccc(OC3CCNCC3)c(Br)c2)C1`: the inhibition constant Ki on Urotensin-2 receptor [1] is 12 nM.

Turning to `O=C(NC1CCN(S(=O)(=O)c2ccc(OC3CCNCC3)c(Br)c2)CC1)c1ccc(Cl)c(Cl)c1`, the Ki at Urotensin-2 receptor [1] was 140 nM.

In the case of `O=C(N[C@H]1CCN(Cc2ccc(OC3CCN(Cc4ccccc4)CC3)c(Br)c2)C1)c1ccc(Cl)c(Cl)c1`, the inhibition constant Ki at Urotensin-2 receptor [1] worked out at 230 nM.

On to `COc1cc(CCN2CC[C@H](NC(=O)c3ccc(Cl)c(Cl)c3)C2)ccc1OC1CCNCC1`, for which the inhibition constant Ki at Urotensin-2 receptor [1] turned out to be 36 nM.

`O=C(N[C@H]1CCN(Cc2ccc(O[C@@H]3CCNC3)c(Br)c2)C1)c1ccc(Cl)c(Cl)c1`: the Ki at Urotensin-2 receptor [1] came to 5.5 nM.

With `O=C(N[C@H]1CCN(CCc2ccc(OC3CCNCC3)c([N+](=O)[O-])c2)C1)c1ccc(Cl)c(Cl)c1`, the Ki at Urotensin-2 receptor [1] amounted to 69 nM.

Take `CC(C)C[C@H](NC(=O)c1cc2ccccc2s1)C(=O)N[C@H]1CCN(Cc2ccc(OCCCN(C)C)cc2)C1`: the inhibition constant Ki at Urotensin-2 receptor [1] was 110 nM.

With `CN(C)CCCOc1cccc(CN2CC[C@H](NC(=O)c3ccc(Cl)c(Cl)c3)C2)c1`, at Urotensin-2 receptor [1], the Ki was more than 3000 nM.

In the case of `CN1CCC(Oc2ccc(CN3CCC(NC(=O)c4ccc(Cl)c(Cl)c4)C3)cc2)C1` (racemic), the inhibition constant (Ki) at Urotensin-2 receptor [1] was 97 nM.

In the case of `O=C(N[C@H]1CCN(Cc2ccc(OCCN3CCCC3)c(Br)c2)C1)c1ccc(Cl)c(Cl)c1`, the inhibition constant (Ki) on Urotensin-2 receptor [1] was 1000 nM.

For `O=C(N[C@H]1CCN(CCc2ccc(OC3CCNCC3)c(Cl)c2)C1)c1ccc(Cl)c(Cl)c1`, the inhibitory constant (Ki) on Urotensin-2 receptor [1] stood at 15 nM.

In the case of `O=C(NC1CCCCN(S(=O)(=O)c2ccc(OC3CCNCC3)c(Br)c2)C1)c1ccc(Cl)c(Cl)c1` (racemic), the inhibitory constant (Ki) on Urotensin-2 receptor [1] stood at 71 nM.

Regarding `CN(C)CCCOc1ccc(CN(C)CCCNC(=O)c2ccc(Cl)c(Cl)c2)cc1`, the Ki on Urotensin-2 receptor [1] was more than 10000 nM.

As for `O=C(N[C@H]1CCN(Cc2ccc(OCCN3CCOCC3)c(Br)c2)C1)c1ccc(Cl)c(Cl)c1`, the Ki on Urotensin-2 receptor [1] came out at 3500 nM.

On to `CN(C)CCCOc1ccc(CN2CC[C@H](NC(=O)c3ccc(Cl)c(Cl)c3)C2)cc1`, for which the IC50 on Urotensin-2 receptor [2] is 170 nM.

In the case of `CN(C)CCCOc1ccc(CN2CC[C@H](NC(=O)c3ccc(Br)cc3)C2)cc1`, the Ki at Urotensin-2 receptor [1] turned out to be 320 nM.

`O=C(N[C@H]1CCN(CCc2ccc(OC3CCNCC3)c(F)c2)C1)c1ccc(Cl)c(Cl)c1`: the Ki on Urotensin-2 receptor [1] worked out at 62 nM.

For the molecule `O=C(N[C@H]1CCN(Cc2ccc(OCCN3CCNCC3)c(Br)c2)C1)c1ccc(Cl)c(Cl)c1`, the Ki on Urotensin-2 receptor [1] was 1500 nM.

As to `CN1CCC(Oc2ccc(CN3CC[C@H](NC(=O)c4ccc(Cl)c(Cl)c4)C3)cc2Cl)C1` (mixture of isomers), on Urotensin-2 receptor [1], the Ki came to 47 nM.

On to `CN1CCC(Oc2ccc(CN3CCC(NC(=O)c4ccc(Cl)c(Cl)c4)C3)cc2Br)C1` (racemic), for which, at Urotensin-2 receptor [1], the inhibition constant Ki stood at 41 nM.

Take `CN(C)CCCOc1ccc(CN2CCC(NC(=O)c3ccc(Cl)c(Cl)c3)CC2)cc1`: on Urotensin-2 receptor [1], the inhibition constant Ki came out at 500 nM.

Regarding `O=C(N[C@H]1CCN(Cc2ccc(O[C@H]3CCNC3)c(Br)c2)C1)c1ccc(Cl)c(Cl)c1`, the Ki on Urotensin-2 receptor [1] is 44 nM.

For the molecule `O=C(N[C@@H]1CCN(S(=O)(=O)c2ccc(OC3CCNCC3)c(Br)c2)C1)c1ccc(Cl)c(Cl)c1`, the inhibition constant Ki at Urotensin-2 receptor [1] was 380 nM.

In the case of `CN(C)CCCOc1ccc(CN2CC[C@@H](NC(=O)c3ccc(Br)cc3)C2)cc1`, the Ki at Urotensin-2 receptor [1] is 350 nM.

Consider `O=C(N[C@H]1CCN(Cc2ccc(OC3CCNCC3)c(Br)c2)C1)c1ccc(Cl)c(Cl)c1`, for which the values for the IC50 (against Cytochrome P450 2D6; at Urotensin-2 receptor [2]; in assay [11]) were 2200 nM, 4 nM and 1900 nM, respectively. The inhibitory constant (Ki) on Urotensin-2 receptor [1] was 4 nM; in assay [3], 38 nM; in [4], 140 nM; in assay [5] it was 140 nM; in [6] it was 85 nM; on D(2) dopamine receptor, 100 nM. Also, the inhibition constant Ki is more than 10000 nM in assay [7], 7200 nM in [8], 4100 nM in assay [9] and more than 10000 nM in [10].

For `O=C(N[C@H]1CCN(S(=O)(=O)c2ccc(OC3CCNCC3)c(Br)c2)C1)c1ccc(Cl)c(Cl)c1`, at Urotensin-2 receptor [1], the inhibitory constant (Ki) was determined as 120 nM.

Turning to `CN(C)CCCOc1ccc(CN2CC[C@H](NC(=O)c3ccc(Cl)c(Cl)c3)C2)cc1Br`, on Urotensin-2 receptor [1], the Ki came to 61 nM.

Regarding `CN(C)CCCOc1ccccc1CN1CC[C@H](NC(=O)c2ccc(Cl)c(Cl)c2)C1`, the Ki on Urotensin-2 receptor [1] is more than 10000 nM.
